In patent US7642277B2, “Non-nucleoside reverse transcriptase inhibitors” (Boehringer Ingelheim International GmbH, priority 2002, dated 2010):

What follows are compounds tested against T1, HIV-1 RT enzyme (wild type) (Human immunodeficiency virus type 1 group M subtype B, UniProt P04585) (assay: Reverse transcriptase (RT) enzymatic assay (IC50), PicoGreen fluorescence, wild type). Details: RT enzymatic assay, wild type; read-out: IC50 WT.
T1 construct: The reverse transcriptase (RT) enzyme assay has been adapted to a 96-well microtiter plate format
Assay type: biochemical
Method: Reverse Transcriptase (RT) Assays Enzymatic Assay (IC50)
The enzymatic assay employed is described as follows: The reverse transcriptase (RT) enzyme assay has been adapted to a 96-well microtiter plate format and uses PicoGreen™ as a fluorescent intercalator. More explicitly, the HIV-1 RT enzyme was thawed and appropriately diluted into Tris/HCl 50 mM pH 7.8 containing NaCl 60 mM, MgCl2∘6H2O 2 mM, DTT 6 mM, GSH 2 mM and 0.02% w/v Chaps to give ≈10 nM enzyme. […] The plate was pre-incubated for 15 minutes at room temperature before proceeding to the next step. […] Then the enzymatic reaction was initiated by addition of 20 μL of substrate solution. […] After addition of the substrate cocktail, the plate was covered with a plastic seal and incubated for 50 minutes at 37° C. in a dry incubator. The reaction was then quenched by addition of 5 μL of EDTA 0.5 M. The plate was shaken for 30 seconds at medium speed and incubated for 5 minutes at room temperature. Then 160 μL of PicoGreen™ 1:400 dilution from commercial stock (diluted in Tris 20 mM pH 7.5 with EDTA 1 mM) was added and the plate was shaken for 30 seconds and incubated for 10 minutes at room temperature. […] Each row contained at its extremities a blank and a control well.
Table legend: A=>100; B=100-50; C=<50; NT=not tested

SMILES	IC50
COc1cc(NC(=O)CSc2nnnn2-c2cccc3ccccc23)cc(OC)c1 [Entry 242]	> 100 nM
O=[N+]([O-])c1ccccc1CNCCSc1nnnn1-c1cccc2ccccc12 [Entry 328]	> 100 nM
O=C(CSc1ccccc1Br)Nc1ccccc1Cl [Entry 426]	> 100 nM
Clc1ccccc1/C=C/CSc1nnnn1-c1cccc2ccccc12 [Entry 313]	> 100 nM
O=C1C(Sc2nnnn2-c2cccc3ccccc23)CCN1c1ccccc1Cl (stereo not shown) [Entry 346]	> 100 nM
O=C(CSc1nnnn1-c1cccc2ccccc12)Nc1ccccn1 [Entry 243]	> 100 nM
O=C(CSc1nnnn1-c1cccc2ccccc12)Nc1ccc(-c2ccccc2)cc1 [Entry 226]	> 100 nM
O=C(CCCc1nnnn1-c1cccc2ccccc12)Nc1ccccc1Cl [Entry 305]	> 100 nM
O=C(CSc1nnnn1-c1cccc2ccccc12)Nc1cccc([N+](=O)[O-])c1 [Entry 223]	> 100 nM
Clc1ccccc1CCCSc1nnnn1-c1cccc2ccccc12 [Entry 311]	> 100 nM
COC(=O)c1cccc(-n2nnnc2SCC(=O)Nc2ccccc2[N+](=O)[O-])c1 [Entry 120]	> 100 nM
CN(CCSc1nnnn1-c1cccc2ccccc12)C(=O)c1ccccc1Cl [Entry 332]	> 100 nM
Cc1ccc(NC(=O)CSc2nnnn2-c2cccc3ccccc23)c(C)c1 [Entry 233]	> 100 nM
O=C(C[S+]([O-])c1ccccc1-c1cccc2ccccc12)Nc1ccccc1Cl (stereo not shown) [Entry 407]	> 100 nM
O=C(CNc1nnnn1-c1cccc2ccccc12)Nc1ccccc1[N+](=O)[O-] [Entry 303]	> 100 nM
O=C(NCCSc1nnnn1-c1cccc2ccccc12)Nc1ccccc1Cl [Entry 334]	> 100 nM
O=C(CSc1nnnn1-c1cccc2ccccc12)Nc1cccc(Cl)c1F [Entry 232]	> 100 nM
O=C(CSc1nnnn1-c1cccc2ccccc12)Nc1ccccc1-n1cccc1 [Entry 222]	> 100 nM
O=C(CSc1nnnn1-c1cccc2ncccc12)Nc1ccccc1[N+](=O)[O-] [Entry 106]	> 100 nM
O=[N+]([O-])c1ccccc1OCCSc1nnnn1-c1cccc2ccccc12 [Entry 320]	> 100 nM
Cc1ccccc1NC(=O)CSc1nccn1-c1cccc2ccccc12 [Entry 414]	> 100 nM
COc1ccccc1NC(=O)CSc1nccn1-c1cccc2ccccc12 [Entry 415]	> 100 nM
O=C(CSc1nnnn1-c1cccc2ccccc12)Nc1cccc2c1CCCC2 [Entry 229]	> 100 nM
O=C(CSc1nnnn1-c1cccc2ccccc12)Nc1ccncc1 [Entry 245]	> 100 nM
O=C(CCCc1nnnn1-c1cccc2ccccc12)Nc1ccccc1[N+](=O)[O-] [Entry 306]	> 100 nM
Cc1cc(C)c(-n2nnnc2SCC(=O)c2ccc3c(c2)OCO3)c(C)c1 [Entry 423]	> 100 nM
O=C(CSc1nnnn1-c1cccc2ccccc12)Nc1c(Cl)cccc1Cl [Entry 241]	> 100 nM

SMILES	IC50
CN(CCSc1nnnn1-c1cccc2ccccc12)c1ccccc1[N+](=O)[O-] [Entry 327]	> 100 nM
O=C(CNCc1nnnn1-c1cccc2ccccc12)Nc1ccccc1[N+](=O)[O-] [Entry 337]	> 100 nM
O=[N+]([O-])c1cccc2[nH]c(CSc3nnnn3-c3cccc4ccccc34)nc12 [Entry 340]	> 100 nM
COc1ccc(NC(=O)CSc2nnnn2-c2cccc3ccccc23)cc1 [Entry 224]	> 100 nM
O=C(CSc1nnnn1-c1cccc2ccccc12)Nc1ccc([N+](=O)[O-])cc1 [Entry 227]	> 100 nM
COC(=O)c1ccccc1NC(=O)CSc1nnnn1-c1cccc2ccccc12 [Entry 216]	> 100 nM
O=C(CCc1ccccc1-c1cccc2ccccc12)Nc1ccccc1Cl [Entry 410]	> 100 nM
O=[N+]([O-])c1ccccc1NCCSc1nnnn1-c1cccc2ccccc12 [Entry 326]	> 100 nM
O=C1c2ccccc2C(=O)N1CCSc1nnnn1-c1cccc2ccccc12 [Entry 341]	> 100 nM
O=[N+]([O-])c1ccccc1NCCCSc1nnnn1-c1cccc2ccccc12 [Entry 329]	> 100 nM
CCOc1ccccc1NC(=O)CSc1nnnn1-c1cccc2ccccc12 [Entry 213]	> 100 nM
Cc1cccc(NC(=O)CSc2nnnn2-c2cccc3ccccc23)c1C [Entry 228]	> 100 nM
CC(=O)c1ccccc1NC(=O)CSc1nnnn1-c1cccc2ccccc12 [Entry 215]	> 100 nM
OC(CSc1nnnn1-c1cccc2ccccc12)C(O)c1ccccc1Cl (stereo not shown) [Entry 319]	> 100 nM
CCc1ccccc1NC(=O)CSc1nnnn1-c1cccc2ccccc12 [Entry 203]	> 100 nM
O=C(CSc1nnnn1-c1cccc2ccccc12)Nc1ccccc1-c1ccccc1 [Entry 206]	> 100 nM
O=C(CCC1=C(c2cccc3ccccc23)CCC1)Nc1ccccc1Cl [Entry 405]	> 100 nM
Clc1ccccc1OCCSc1nnnn1-c1cccc2ccccc12 [Entry 321]	> 100 nM
COc1ccc(-n2nnnc2SCC(=O)Nc2ccccc2[N+](=O)[O-])c(OC)c1 [Entry 131]	> 100 nM
c1ccc2c(-n3nnnc3SCc3nc4ccccc4[nH]3)cccc2c1 [Entry 339]	> 100 nM
O=C(CSc1nnnn1Cc1ccc2ccccc2c1)Nc1ccccc1[N+](=O)[O-] [Entry 107]	> 100 nM
O=[N+]([O-])c1ccccc1CCSc1nnnn1-c1cccc2ccccc12 [Entry 310]	> 100 nM
O=C(OCCSc1nnnn1-c1cccc2ccccc12)c1ccccc1Cl [Entry 323]	> 100 nM
O=C(CSc1nnnn1-c1cccc2ccccc12)Nc1ccccc1N1CCOCC1 [Entry 221]	> 100 nM
CN(C(=O)CSc1nnnn1-c1cccc2ccccc12)c1ccccc1Cl [Entry 342]	> 100 nM
O=C(CSc1nnnn1-c1cccc2ccccc12)Nc1ccc(O)cc1 [Entry 225]	> 100 nM
NC(=O)c1ccccc1NC(=O)CSc1nnnn1-c1cccc2ccccc12 [Entry 217]	> 100 nM

SMILES	IC50
O=C(NCCSc1nnnn1-c1cccc2ccccc12)Nc1ccccc1[N+](=O)[O-] [Entry 333]	> 100 nM
O=C(CSc1nnnn1-c1cccc2ccccc12)Nc1ccccc1F [Entry 207]	> 100 nM
O=C(CSc1nnnn1-c1cccc2ccccc12)Nc1ccccc1C(F)(F)F [Entry 214]	> 100 nM
CC(C)c1ccccc1NC(=O)CSc1nnnn1-c1cccc2ccccc12 [Entry 204]	> 100 nM
O=C(NCCSc1nnnn1-c1cccc2ccccc12)c1ccccc1Cl [Entry 331]	> 100 nM
O=C(CSc1nc2ccccc2n1-c1ccccc1)Nc1ccccc1[N+](=O)[O-] [Entry 412]	> 100 nM
O=C(CSCc1nnnn1-c1cccc2ccccc12)Nc1ccccc1[N+](=O)[O-] [Entry 335]	> 100 nM
O=C(CSc1nnnn1-c1cccc2ccccc12)Cc1ccccc1[N+](=O)[O-] [Entry 345]	> 100 nM
O=C(OCCSc1nnnn1-c1cccc2ccccc12)c1ccccc1[N+](=O)[O-] [Entry 322]	> 100 nM
O=C(CS(=O)(=O)c1ccccc1-c1cccc2ccccc12)Nc1ccccc1Cl [Entry 408]	> 100 nM
COc1ccccc1NC(=O)CSc1nnnn1-c1cccc2ccccc12 [Entry 212]	> 100 nM
NS(=O)(=O)c1ccccc1NC(=O)CSc1nnnn1-c1cccc2ccccc12 [Entry 220]	> 100 nM
O=[N+]([O-])c1ccccc1/C=C/CSc1nnnn1-c1cccc2ccccc12 [Entry 312]	> 100 nM
O=C(COCc1nnnn1-c1cccc2ccccc12)Nc1ccccc1[N+](=O)[O-] [Entry 336]	> 100 nM
Clc1ccccc1OCCCSc1nnnn1-c1cccc2ccccc12 [Entry 324]	> 100 nM
O=C(CSc1nnnn1-c1cccc2ccccc12)Nc1cccnc1 [Entry 244]	> 100 nM
O=[N+]([O-])c1ccccc1C(O)CSc1nnnn1-c1cccc2ccccc12 (stereo not shown) [Entry 309]	> 100 nM
Cc1cccc(C)c1-n1nnnc1SCC(=O)Nc1ccccc1[N+](=O)[O-] [Entry 138]	> 100 nM
O=C(C=Cc1nnnn1-c1cccc2ccccc12)Nc1ccccc1[N+](=O)[O-] [Entry 307]	> 100 nM
CSc1ccccc1NC(=O)CSc1nnnn1-c1cccc2ccccc12 [Entry 218]	> 100 nM
O=C(CSc1nnnn1-c1cccc2ccccc12)Nc1ccccc1Cc1ccccc1 [Entry 205]	> 100 nM
Cc1ccccc1-c1ccc(-n2nnnc2SCC(=O)Nc2ccccc2[N+](=O)[O-])c(C)c1 [Entry 132]	> 100 nM
CN(CC(=O)Nc1ccccc1[N+](=O)[O-])Cc1nnnn1-c1cccc2ccccc12 [Entry 338]	> 100 nM
O=C(Nc1ccccc1[N+](=O)[O-])C1CC1c1nnnn1-c1cccc2ccccc12 (stereo not shown) [Entry 343]	> 100 nM
O=C(CSc1nnnn1-c1cccc2ccccc12)NCc1ccccc1[N+](=O)[O-] [Entry 344]	> 100 nM
